Test results published in ChEMBL document CHEMBL1201862, “PubChem BioAssay data set” (2004).
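Values below derive from 48-hour exposures of cells grown in 96-well plates, with endpoints linearly interpolated between the two concentrations bracketing the appropriate inhibition level. GI50 marks 50% less growth.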 Active and inactive are the calls of the source. No stated cut-off is given here; in the data, active = GI50 up to about 1.1 µM and inactive = higher.

Tests used:
Assay in all cases: NCI tumour cell line growth inhibition, 48 h
LXFL 529 = system: LXFL 529
DMS-114 = system: DMS-114
M19-MEL = system: M19-MEL
SNB-78 = system: SNB-78
DMS-273 = system: DMS-273
KM-20L2 = system: KM-20L2
XF498 = system: XF498
HOP-18 = system: HOP-18
RXF 631 = system: RXF 631

Row | Compound | GI50 (LXFL 529) | GI50 (DMS-114) | GI50 (M19-MEL) | GI50 (SNB-78) | GI50 (DMS-273) | GI50 (KM-20L2) | GI50 (XF498) | GI50 (HOP-18) | GI50 (RXF 631)
1 | CCOC(=O)C(=O)C(C#N)c1ccc(Cl)cc1 (stereo not given) | > 100 µM (inactive) | > 100 µM (inactive) | > 100 µM (inactive) | > 100 µM (inactive) | > 100 µM (inactive) | > 100 µM (inactive) | > 100 µM (inactive) |  | 
2 | C[Si](C)(C)C(Sc1ccccc1)(Sc1ccccc1)Sc1ccccc1 | 81.5 µM (inactive) | 54.8 µM (inactive) | 34.7 µM (inactive) | > 100 µM (inactive) | > 100 µM (inactive) | 67.1 µM (inactive) | 30.8 µM (inactive) |  | 
3 | CC(C)N(C(=O)c1cccc(C(=O)N(C(C)C)C(C)C)c1)C(C)C | > 100 µM (inactive) | > 100 µM (inactive) | > 100 µM (inactive) | > 100 µM (inactive) | > 100 µM (inactive) | > 100 µM (inactive) | > 100 µM (inactive) | > 100 µM (inactive) | > 100 µM (inactive)
4 | CCOC(=O)NC(=O)c1c[nH]c(=O)[nH]c1=O | > 100 µM (inactive) | > 100 µM (inactive) | > 100 µM (inactive) | > 100 µM (inactive) | > 100 µM (inactive) | > 100 µM (inactive) | > 100 µM (inactive) | > 100 µM (inactive) | > 100 µM (inactive)
5 | CC(=O)NC1=C(NCc2ccc(Cl)cc2)C(=O)c2ccccc2C1=O | 6.55 µM (inactive) |  | 5.27 µM (inactive) | 11 µM (inactive) | 7.67 µM (inactive) | 24.3 µM (inactive) | 1.44 µM (inactive) |  | 
6 | COc1ccc(C2Oc3cc(OC)c(OC)cc3C2CCl)cc1OC (stereo not given) | > 100 µM (inactive) | > 100 µM (inactive) | > 100 µM (inactive) |  | > 100 µM (inactive) | > 100 µM (inactive) | > 100 µM (inactive) |  | 
7 | N#Cc1cccc(/C=N/N/C(N)=N/O)c1 | 39.4 µM (inactive) |  | > 100 µM (inactive) | > 100 µM (inactive) | > 100 µM (inactive) |  | 23.8 µM (inactive) | 15.7 µM (inactive) | 
8 | c1ccc(C(c2ccccc2)c2cccnc2)cc1 |  | 82 µM (inactive) | > 100 µM (inactive) | > 100 µM (inactive) | > 100 µM (inactive) | > 100 µM (inactive) |  | > 100 µM (inactive) | > 100 µM (inactive)
9 | N#Cc1c2nc3ccccc3nc2n2ccc3ccccc3c12 | > 100 µM (inactive) | > 100 µM (inactive) | > 100 µM (inactive) | > 100 µM (inactive) | > 100 µM (inactive) |  |  | > 100 µM (inactive) | 
10 | CN(C)c1ccc(/C=c2\sc3nnc(Cc4ccccc4)n3c2=O)cc1 | > 10 µM (inactive) | 17 µM (inactive) | > 100 µM (inactive) | > 10 µM (inactive) | 33.7 µM (inactive) | > 10 µM (inactive) | > 10 µM (inactive) | > 10 µM (inactive) | 
11 | C/C(=N\N)C(CN(C)C)C(c1ccccc1)c1c(O)c2ccccc2oc1=O (stereo not given) | > 100 µM (inactive) | 51.9 µM (inactive) | 95.7 µM (inactive) | > 100 µM (inactive) | > 100 µM (inactive) | > 100 µM (inactive) | 36.4 µM (inactive) | > 100 µM (inactive) | > 100 µM (inactive)
12 | O=C(O)c1ccccc1/N=C/c1ccc(N(CCCl)CCCl)cc1 |  |  | > 100 µM (inactive) | > 82.8 µM (inactive) | 81.1 µM (inactive) | > 100 µM (inactive) | 0.01 µM (active) | > 100 µM (inactive) | 
13 | COc1cc2ccc(CC#N)cc2cc1OC | > 100 µM (inactive) | > 100 µM (inactive) | > 100 µM (inactive) | > 100 µM (inactive) | > 100 µM (inactive) | > 100 µM (inactive) | > 100 µM (inactive) |  | > 100 µM (inactive)
14 | Cc1cc(C)nc(NS(=O)(=O)c2ccc(NC(=O)c3ccc(Cl)c4c(Nc5ccc(S(=O)(=O)N=C(N)N)cc5)c5ccccc5nc34)cc2)n1 | 44.3 µM (inactive) | 29.9 µM (inactive) |  | > 100 µM (inactive) | 33.5 µM (inactive) | 50.2 µM (inactive) | > 100 µM (inactive) | > 100 µM (inactive) | 
15 | CCCCN(CCCC)c1c([N+](=O)[O-])c(=O)nc2ccccn12 | 33 µM (inactive) | 21.7 µM (inactive) | 8.67 µM (inactive) | 48.2 µM (inactive) |  | 27.4 µM (inactive) | 32.2 µM (inactive) |  | 23.4 µM (inactive)
16 | O=C(CC1(O)C(=O)Nc2c(Cl)cc(Cl)cc21)c1ccc2ccccc2c1 (stereo not given) | 9.16 µM (inactive) | 4.69 µM (inactive) | 4.49 µM (inactive) | 16.8 µM (inactive) | 3.72 µM (inactive) | 3.56 µM (inactive) | 11.6 µM (inactive) | 13.3 µM (inactive) | 7.08 µM (inactive)
17 | CCOC(=O)CC(=O)ON(C)C(C)=O | > 100 µM (inactive) | > 100 µM (inactive) | > 100 µM (inactive) | > 100 µM (inactive) |  | > 100 µM (inactive) | > 100 µM (inactive) |  | 
18 | O=C(Oc1ccc(Cl)cc1[N+](=O)[O-])c1ccccc1 | > 100 µM (inactive) | > 100 µM (inactive) | > 100 µM (inactive) | > 100 µM (inactive) | > 100 µM (inactive) | > 100 µM (inactive) | 0.0435 µM (active) | > 100 µM (inactive) | 
19 | N=C(N)NS(=O)(=O)c1ccc(NCCc2c3ccccc3nc3ccccc23)cc1 | > 100 µM (inactive) | 28.3 µM (inactive) | > 100 µM (inactive) |  | 72.4 µM (inactive) | > 100 µM (inactive) |  |  | 35.5 µM (inactive)
20 | CC1=C(CO)C(=O)OC(C(C)C2CCC3C4CC5OC56C(O)C(N5CC5)=CC(=O)C6(C)C4CCC23C)C1 (stereo not given) | 4.32 µM (inactive) | 2.13 µM (inactive) | 11.4 µM (inactive) | 5.61 µM (inactive) | 5.65 µM (inactive) | 3.05 µM (inactive) | 5.3 µM (inactive) |  | 11.5 µM (inactive)
21 | CC(=O)N/C(=C\c1cccc([N+](=O)[O-])c1)c1nc2ccc3c(c2[nH]1)C(=O)c1ccccc1C3=O | 29.3 µM (inactive) | > 37.5 µM (inactive) | > 100 µM (inactive) | > 57.9 µM (inactive) |  | > 100 µM (inactive) | 52.5 µM (inactive) |  | 32.6 µM (inactive)
22 | CC[C@H](C)[C@H]1NC(=O)C(C(C)=O)=C1O | 66.5 µM (inactive) | 76.7 µM (inactive) | 71.3 µM (inactive) | > 100 µM (inactive) | > 100 µM (inactive) | > 100 µM (inactive) | > 100 µM (inactive) | 58.1 µM (inactive) | 92.5 µM (inactive)
23 | NN |  |  |  | 1190 µM (inactive) | 132 µM (inactive) | 231 µM (inactive) |  | 324 µM (inactive) | 
24 | Brc1ccc2[nH]c3c(C4=NCCC4)nccc3c2c1 |  | 14.5 µM (inactive) | 26.9 µM (inactive) | > 100 µM (inactive) | 14.4 µM (inactive) | 8.17 µM (inactive) | > 39.5 µM (inactive) | 10.2 µM (inactive) | 
25 | COc1ccc(O)c(C#N)c1C#N.COc1ccc(OC)c(C#N)c1C#N |  |  | > 100 µM (inactive) | > 100 µM (inactive) | > 100 µM (inactive) | > 100 µM (inactive) | > 100 µM (inactive) |  | 
26 | CN(CC#N)C1CCCC[C@H]1O (stereo not given in full) | > 100 µM (inactive) | > 100 µM (inactive) |  | > 100 µM (inactive) | > 100 µM (inactive) | > 100 µM (inactive) | > 100 µM (inactive) | > 100 µM (inactive) | 
27 | CC(C)=CC1C(C(=O)O)C1(C)C (stereo not given) [CHRYSANTHEMIC ACID] |  | > 750 µM (inactive) | > 750 µM (inactive) |  | > 750 µM (inactive) | > 750 µM (inactive) | 50.6 µM (inactive) | 197 µM (inactive) | 
28 | CC(C)Cc1ccc(C(C)/C=C2\CCC(CN3CCCC3)C2=O)cc1 (stereo not given) | 2.15 µM (inactive) | 3.8 µM (inactive) | 3.84 µM (inactive) | 19.4 µM (inactive) | 4.5 µM (inactive) | 14.4 µM (inactive) | 8.73 µM (inactive) | 19.2 µM (inactive) | 20.2 µM (inactive)
29 | CNC(=O)OCc1c(CO)nc(SC)n1C |  | > 100 µM (inactive) | > 100 µM (inactive) |  | > 100 µM (inactive) | > 100 µM (inactive) | > 100 µM (inactive) | > 100 µM (inactive) | 
